According to patent EP0118205A1, “(5-(2-Aminomethyl-imidazol-1-yl)-1,3-dialkyl-1H-pyrazol-4-yl)(aryl)methanones and processes for their production” (WARNER-LAMBERT COMPANY, priority 1983, dated 1984):
Counter-ions that a name gives are not always drawn.

System: amnesia produced by an electroconvulsive shock
Test: Reversal of amnesia produced by electroconvulsive shock (shelf-box foot shock memory test)
Format: in vivo, male mice (Carworth, CF-1 strain)
Settings: mice, oral
Description: The effectiveness of the aforementioned compounds is determined by the test given below which is designed to show the compound's ability to reverse amnesia produced by an electroconvulsive shock.
One hundred male mice (Carworth, CF-1 strain, 19-21 g at time of shipment) are divided into five groups of 20 mice each. Each mouse is placed, one at a time, on a small shelf attached to the outside wall of a test box. In this position the mouse is suspended in space. Therefore, the mouse is motivated to step from the shelf through a conveniently placed small hole into the interior of the box. As soon as the mouse has all four feet within the semidarkened interior of the box, the grid floor of the box is electrified (1.5 milliamps, 3 second duration) to produce a strong pain-fear reaction from the animal. About five seconds thereafter, the mouse is removed from the test box and placed in a group holding cage.
Two hours after the above training, the mice are given a single electroconvulsive shock produced by 20 milliamps delivered for 1.0 seconds through the ears. Immediately thereafter, the mice are returned to the holding cage.
Two hours after the convulsive treatment, the mice are administered orally through a […] with the chemical being assessed. Usually three doses of the chemical will be tested at a time.
One hour after the drug treatment, the mice are tested for memory of the painful foot shock received within the shelf-box apparatus. This testing is accomplished by once again placing each mouse on the small shelf attached to the test box. Any mouse that stays on the shelf for 60 seconds without entering the box is counted as remembering the painful foot shock received within the box five hours earlier. Any mouse entering the box within the 60-second period is counted as having amnesia for the painful event.
The five groups of mice are treated as follows:
The percentage of amnesia reversal is determined as follows for each drug group: [formula]
The following table reports the percent of amnesia reversal of orally administered [(5-(2-aminomethyl)-5-methyl-lH- imidazol-1-yl)-1,3-dimethyl-lH-pyrazol-4-yi](2-chlorophenyl)methanone dihydrochloride.

Structure (SMILES)	% Amnesia Reversal (dose 0.63 mg/kg) [%]	Rating (dose 0.63 mg/kg)	% Amnesia Reversal (dose 1.25 mg/kg) [%]	Rating (dose 1.25 mg/kg)	% Amnesia Reversal (dose 2.50 mg/kg) [%]	Rating (dose 2.50 mg/kg)	% Amnesia Reversal (dose 5.00 mg/kg) [%]	Rating (dose 5.00 mg/kg)	% Amnesia Reversal (dose 20.00 mg/kg) [%]	Rating (dose 20.00 mg/kg)	% Amnesia Reversal (dose 80.00 mg/kg) [%]	Rating (dose 80.00 mg/kg)	Percent Amnesia Reversal (dose 1 mg/kg) [%]	Percent Amnesia Reversal (dose 10 mg/kg) [%]	Percent Amnesia Reversal (dose 100 mg/kg) [%]	Percent Amnesia Reversal (Rating) (dose 1 mg/kg)	Percent Amnesia Reversal (Rating) (dose 10 mg/kg)	Percent Amnesia Reversal (Rating) (dose 100 mg/kg)
Cc1nn(C)c(-n2c(C)cnc2CN)c1C(=O)c1ccccc1Cl [Example 1, [5-((2-aminomethyl)-5-methyl-lH-imidazol-1-yl)-1,3-dimethyl-1H-pyrazol-4-yl] (2-chlorophenyl) methanone dihydrochloride]	20	N (0 to 29 percent (inactive = N))	40	A (40 percent or more (active = A))	40	A (40 percent or more (active = A))	62	A (40 percent or more (active = A))	87	A (40 percent or more (active = A))	44	A (40 percent or more (active = A))	–	–	–	–	–	–
Cc1nn(C)c(-n2c(C)cnc2CN(C)C)c1C(=O)c1ccccc1Cl [Example 2]	–	–	–	–	–	–	–	–	–	–	–	–	64	64	85	A (40 percent or more (active = A))	A (40 percent or more (active = A))	A (40 percent or more (active = A))
Cc1nn(C)c(-n2ccnc2CN2CCCC2)c1C(=O)c1ccccc1Cl [Example 3, (2-chlorophenyl)-[1,3-dimethyl-5-[2-(1-pyrrolidinylmethyl)-1H-imidazol--yl]-1H-pyrazol-4-yl]methanone dihydrochloride]	–	–	–	–	–	–	–	–	–	–	–	–	79	27	25	A (40 percent or more (active = A))	C (25 to 39 percent (borderline = C))	C (25 to 39 percent (borderline = C))
Cc1nn(C)c(-n2c(CN3CCN(C)CC3)nc(C)c2C)c1C(=O)c1ccccc1Cl [Example 4, (2-Chlorophenyl)[1,3-dimethyl-5-[4,5-dimethyl-2-[(4-mthyl-piperazin-1-yl)methyl]-1H-imidazol-1-yl]-1H-pyrazol-4-yl]methanone]	–	–	–	–	–	–	–	–	–	–	–	–	36	91	54	C (25 to 39 percent (borderline = C))	A (40 percent or more (active = A))	A (40 percent or more (active = A))
